The values below come from ChEMBL document CHEMBL2424579, “Quinazolin-4-one derivatives as selective histone deacetylase-6 inhibitors for the treatment of Alzheimer's disease” (J Med Chem, 2013).

The source made the active and inactive calls. The rule behind the calls is not given here.

Chain of Poly [ADP-ribose] polymerase 1 (Homo sapiens) (P09874 whole entry): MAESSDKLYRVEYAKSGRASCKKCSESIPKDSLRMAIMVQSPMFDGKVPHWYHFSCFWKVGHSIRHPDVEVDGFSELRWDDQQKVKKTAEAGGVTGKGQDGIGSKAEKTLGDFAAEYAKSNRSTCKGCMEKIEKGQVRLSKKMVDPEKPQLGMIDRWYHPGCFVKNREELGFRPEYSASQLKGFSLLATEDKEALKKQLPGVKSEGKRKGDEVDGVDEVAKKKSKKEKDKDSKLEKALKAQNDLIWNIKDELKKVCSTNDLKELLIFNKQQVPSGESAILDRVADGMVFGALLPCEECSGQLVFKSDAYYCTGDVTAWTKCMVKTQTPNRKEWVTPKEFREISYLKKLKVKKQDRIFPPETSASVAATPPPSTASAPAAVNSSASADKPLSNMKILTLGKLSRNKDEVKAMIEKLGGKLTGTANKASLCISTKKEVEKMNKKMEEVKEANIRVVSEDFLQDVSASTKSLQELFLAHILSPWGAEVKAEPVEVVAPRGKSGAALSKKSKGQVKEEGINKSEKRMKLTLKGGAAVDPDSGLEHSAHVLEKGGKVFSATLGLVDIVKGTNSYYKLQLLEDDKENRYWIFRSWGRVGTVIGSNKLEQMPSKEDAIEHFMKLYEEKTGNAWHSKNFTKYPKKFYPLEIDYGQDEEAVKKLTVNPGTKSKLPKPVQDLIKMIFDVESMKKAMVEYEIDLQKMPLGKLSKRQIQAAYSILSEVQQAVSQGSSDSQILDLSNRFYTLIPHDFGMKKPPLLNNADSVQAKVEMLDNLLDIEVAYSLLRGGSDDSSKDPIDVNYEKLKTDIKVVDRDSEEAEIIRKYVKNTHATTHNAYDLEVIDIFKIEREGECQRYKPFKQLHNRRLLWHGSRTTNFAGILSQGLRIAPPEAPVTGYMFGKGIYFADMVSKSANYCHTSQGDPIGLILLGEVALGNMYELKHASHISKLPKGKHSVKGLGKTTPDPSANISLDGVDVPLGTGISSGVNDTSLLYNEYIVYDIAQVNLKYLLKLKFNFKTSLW

The first series deals with T1, Protein deacetylase HDAC6 (Homo sapiens, UniProt Q9UBN7).
T1 sequence (Q9UBN7 whole entry): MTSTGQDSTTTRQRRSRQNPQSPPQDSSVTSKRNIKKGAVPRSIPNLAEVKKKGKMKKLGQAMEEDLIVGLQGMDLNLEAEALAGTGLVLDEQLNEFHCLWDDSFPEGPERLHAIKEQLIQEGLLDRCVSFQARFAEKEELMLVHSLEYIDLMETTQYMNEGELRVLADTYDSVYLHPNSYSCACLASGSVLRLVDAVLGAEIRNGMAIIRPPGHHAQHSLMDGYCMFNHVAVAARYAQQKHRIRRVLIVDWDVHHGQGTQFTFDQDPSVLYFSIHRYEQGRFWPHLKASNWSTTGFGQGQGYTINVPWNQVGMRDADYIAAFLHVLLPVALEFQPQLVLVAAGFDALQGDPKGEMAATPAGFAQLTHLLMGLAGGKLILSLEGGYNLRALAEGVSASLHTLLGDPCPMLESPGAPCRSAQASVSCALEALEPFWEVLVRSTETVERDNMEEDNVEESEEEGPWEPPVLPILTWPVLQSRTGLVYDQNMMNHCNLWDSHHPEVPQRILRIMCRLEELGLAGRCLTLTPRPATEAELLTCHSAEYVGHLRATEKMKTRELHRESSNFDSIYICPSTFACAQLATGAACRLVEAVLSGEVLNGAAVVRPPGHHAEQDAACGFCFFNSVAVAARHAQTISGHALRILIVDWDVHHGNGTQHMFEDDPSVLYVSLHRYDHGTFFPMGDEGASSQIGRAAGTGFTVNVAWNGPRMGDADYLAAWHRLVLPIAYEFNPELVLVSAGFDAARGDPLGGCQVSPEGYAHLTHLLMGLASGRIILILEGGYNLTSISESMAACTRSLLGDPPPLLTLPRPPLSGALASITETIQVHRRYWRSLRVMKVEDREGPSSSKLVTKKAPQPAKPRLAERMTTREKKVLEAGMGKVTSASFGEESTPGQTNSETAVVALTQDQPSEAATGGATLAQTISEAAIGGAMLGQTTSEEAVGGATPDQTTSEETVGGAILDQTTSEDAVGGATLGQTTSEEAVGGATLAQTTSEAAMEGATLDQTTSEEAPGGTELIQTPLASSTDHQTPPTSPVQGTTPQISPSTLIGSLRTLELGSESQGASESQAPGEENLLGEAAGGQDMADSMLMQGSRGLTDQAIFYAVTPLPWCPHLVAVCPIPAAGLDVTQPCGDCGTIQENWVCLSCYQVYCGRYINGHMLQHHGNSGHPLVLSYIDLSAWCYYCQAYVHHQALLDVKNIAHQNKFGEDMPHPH
Nature of the series: Inhibition of human recombinant HDAC6 expressed in baculovirus/sf9 cells using RHKKAc as substrate.
Conditions: not given
For the molecule `CCc1nc2cc(/C=C/C(=O)NO)ccc2c(=O)n1CCCc1ccccc1`, the IC50 was 33 nM.

As for `CCc1nc2cc(/C=C/C(=O)NO)ccc2c(=O)n1CCc1ccc(F)cc1`, the IC50 was found to be 43 nM.

With `O=C(/C=C/c1ccc2c(=O)n(CCc3ccccc3)c(C3CC3)nc2c1)NO`, the IC50 was found to be 41 nM.

As for `CC(C)c1nc2cc(/C=C/C(=O)NO)ccc2c(=O)n1CCc1ccccc1`, the IC50 was determined as 13 nM.

Another series addresses Poly [ADP-ribose] polymerase 1 (Homo sapiens) (UniProt P09874). Nature of the series: Inhibition of PARP1 (unknown origin) up to 25 uM.
Conditions: not given
Regarding `CCc1nc2cc(/C=C/C(=O)NO)ccc2c(=O)n1CCCc1ccccc1`, the inhibition result was “inactive”.

In a further series the test system is PC-12. Nature of the series: Induction of neurite outgrowth in rat PC12 cells after 5 days. In kind it is functional, cell-based. The note with it: PC-12, 120 h.
The molecule `CCc1nc2cc(/C=C/C(=O)NO)ccc2c(=O)n1CCCc1ccccc1` registered an EC50 of 6.6 µM.

On to `CCc1nc2cc(/C=C/C(=O)NO)ccc2c(=O)n1CCc1ccc(F)cc1`, for which a half-maximal effect (EC50) was put at 18.4 µM.

Take `O=C(/C=C/c1ccc2c(=O)n(CCc3ccccc3)c(C3CC3)nc2c1)NO`: it took 10.5 µM to reach a half-maximal effect (EC50).

For the molecule `CC(C)c1nc2cc(/C=C/C(=O)NO)ccc2c(=O)n1CCc1ccccc1`, the EC50 turned out to be 11.5 µM.

In the next series the test system is PC-12. Nature of the series: Cytotoxicity against rat PC12 cells at 25 uM. The class given is cell-based. The note with it: pc-12, 25 µM.
Take `CCc1nc2cc(/C=C/C(=O)NO)ccc2c(=O)n1CCCc1ccccc1`: the Activity entry is given as “Non-toxic”.

Take `CCc1nc2cc(/C=C/C(=O)NO)ccc2c(=O)n1CCc1ccc(F)cc1`: the Activity result is reported as “Non-toxic”.

Turning to `O=C(/C=C/c1ccc2c(=O)n(CCc3ccccc3)c(C3CC3)nc2c1)NO`, the Activity result is listed as “Non-toxic”.

Regarding `CC(C)c1nc2cc(/C=C/C(=O)NO)ccc2c(=O)n1CCc1ccccc1`, the Activity result is “Non-toxic”.

The subject of a further series is SH-SY5Y. Nature of the series: Increase of synaptic activity in human SH-SY5Y cells after 5 days by fluorescence assay. The note with it: 120 h. In kind it is functional, cell-based.
`CCc1nc2cc(/C=C/C(=O)NO)ccc2c(=O)n1CCCc1ccccc1`: the concentration for a half-maximal effect (EC50) came to 10 µM.

`CCc1nc2cc(/C=C/C(=O)NO)ccc2c(=O)n1CCc1ccc(F)cc1` showed an EC50 of 22.2 µM.

In the case of `O=C(/C=C/c1ccc2c(=O)n(CCc3ccccc3)c(C3CC3)nc2c1)NO`, the EC50 is more than 25 µM.

Molecule `CC(C)c1nc2cc(/C=C/C(=O)NO)ccc2c(=O)n1CCc1ccccc1` registered an EC50 of 6.7 µM.

Another series has as its system PC-12. Briefly: Induction of neurite outgrowth in rat PC12 cells at 10 uM after 5 days.
Conditions: not given
In kind it is functional, cell-based.
In the case of `CCc1nc2cc(/C=C/C(=O)NO)ccc2c(=O)n1CCCc1ccccc1`, the result was Active.

On to `CCc1nc2cc(/C=C/C(=O)NO)ccc2c(=O)n1CCc1ccc(F)cc1`, for which the outcome was Active.

For `O=C(/C=C/c1ccc2c(=O)n(CCc3ccccc3)c(C3CC3)nc2c1)NO`, the outcome was Active.

Consider `CC(C)c1nc2cc(/C=C/C(=O)NO)ccc2c(=O)n1CCc1ccccc1`, for which the result was Active.

A further series has as its target T2, Histone deacetylase 8 (Homo sapiens, UniProt Q9BY41).
T2 sequence (Q9BY41 whole entry): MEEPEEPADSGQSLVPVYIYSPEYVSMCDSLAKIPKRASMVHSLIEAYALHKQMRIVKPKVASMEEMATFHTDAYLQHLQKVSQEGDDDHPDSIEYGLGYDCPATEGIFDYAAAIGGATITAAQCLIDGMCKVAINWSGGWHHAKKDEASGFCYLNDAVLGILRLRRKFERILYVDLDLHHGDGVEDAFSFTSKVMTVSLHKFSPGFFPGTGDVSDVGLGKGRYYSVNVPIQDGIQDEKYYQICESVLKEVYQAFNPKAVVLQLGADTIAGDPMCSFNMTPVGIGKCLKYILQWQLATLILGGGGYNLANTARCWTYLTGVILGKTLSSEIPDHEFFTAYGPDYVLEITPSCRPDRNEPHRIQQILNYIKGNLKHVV
Nature of the series: Inhibition of human recombinant HDAC8 expressed in baculovirus/sf9 cells using RHKAcKAc as substrate.
Conditions: not given
Regarding `CCc1nc2cc(/C=C/C(=O)NO)ccc2c(=O)n1CCCc1ccccc1`, the IC50 was found to be 1330 nM.

As to `CCc1nc2cc(/C=C/C(=O)NO)ccc2c(=O)n1CCc1ccc(F)cc1`, the IC50 came out at 891 nM.

For the next series, the target named is T3, Histone deacetylase 11 (Homo sapiens, UniProt Q96DB2).
T3 sequence (Q96DB2 whole entry): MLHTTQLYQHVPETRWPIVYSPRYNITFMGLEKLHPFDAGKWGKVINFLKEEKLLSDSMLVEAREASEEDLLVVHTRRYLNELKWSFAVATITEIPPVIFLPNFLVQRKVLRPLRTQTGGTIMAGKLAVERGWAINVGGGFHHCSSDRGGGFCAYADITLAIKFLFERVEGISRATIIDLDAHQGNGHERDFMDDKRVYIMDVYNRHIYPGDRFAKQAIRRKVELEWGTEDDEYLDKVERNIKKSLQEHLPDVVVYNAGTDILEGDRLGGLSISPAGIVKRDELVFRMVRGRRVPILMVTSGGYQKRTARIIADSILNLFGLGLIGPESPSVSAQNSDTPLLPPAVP
Briefly: Inhibition of human recombinant HDAC11 expressed in baculovirus/sf9 cells using RHKKAc as substrate.
Conditions: not given
Turning to `CCc1nc2cc(/C=C/C(=O)NO)ccc2c(=O)n1CCCc1ccccc1`, the IC50 was 5.59 µM.

`CCc1nc2cc(/C=C/C(=O)NO)ccc2c(=O)n1CCc1ccc(F)cc1`: the IC50 worked out at 4.25 µM.

The test system of the next series is PC-12. Briefly: Induction iof GAP-43 protein expression in rat PC12 cells after 48 hrs by Western blotting analysis. The class given is functional, cell-based.
Conditions: not given
Consider `CCc1nc2cc(/C=C/C(=O)NO)ccc2c(=O)n1CCCc1ccccc1`, for which the Activity result was “Dose-dependent effect”.

Another series deals with Histone deacetylase 1 (Homo sapiens, UniProt Q13547). Briefly: Inhibition of human recombinant HDAC1 expressed in baculovirus/sf9 cells using RHKKAc as substrate.
Chain of Histone deacetylase 1 (Q13547 whole entry): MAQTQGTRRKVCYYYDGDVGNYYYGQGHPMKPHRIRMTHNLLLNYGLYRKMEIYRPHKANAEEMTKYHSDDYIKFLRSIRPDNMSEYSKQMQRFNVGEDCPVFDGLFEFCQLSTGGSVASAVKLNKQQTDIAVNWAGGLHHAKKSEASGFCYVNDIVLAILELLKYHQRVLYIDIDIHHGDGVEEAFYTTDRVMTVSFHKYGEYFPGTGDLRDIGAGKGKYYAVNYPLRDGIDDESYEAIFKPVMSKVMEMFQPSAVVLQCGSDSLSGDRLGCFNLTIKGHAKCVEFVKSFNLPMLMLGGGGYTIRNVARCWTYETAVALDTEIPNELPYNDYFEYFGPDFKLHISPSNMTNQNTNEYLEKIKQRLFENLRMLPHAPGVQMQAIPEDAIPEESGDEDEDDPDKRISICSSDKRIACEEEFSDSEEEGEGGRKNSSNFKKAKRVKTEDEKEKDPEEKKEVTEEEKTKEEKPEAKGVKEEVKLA
Conditions: not given
Take `CCc1nc2cc(/C=C/C(=O)NO)ccc2c(=O)n1CCCc1ccccc1`: the IC50 was 3200 nM.

As for `CCc1nc2cc(/C=C/C(=O)NO)ccc2c(=O)n1CCc1ccc(F)cc1`, the IC50 was 2110 nM.

With `O=C(/C=C/c1ccc2c(=O)n(CCc3ccccc3)c(C3CC3)nc2c1)NO`, the IC50 turned out to be 433 nM.

For `CC(C)c1nc2cc(/C=C/C(=O)NO)ccc2c(=O)n1CCc1ccccc1`, the IC50 amounted to 389 nM.

The subject of a further series is Vero. Nature of the series: Cytotoxicity against african green monkey Vero cells at 25 uM. The class given is cell-based. The note with it: chlorocebus sabaeus.
For the molecule `CCc1nc2cc(/C=C/C(=O)NO)ccc2c(=O)n1CCCc1ccccc1`, the Activity entry was “Non-toxic”.

Consider `CCc1nc2cc(/C=C/C(=O)NO)ccc2c(=O)n1CCc1ccc(F)cc1`, for which the Activity entry is recorded as “Non-toxic”.

For the molecule `O=C(/C=C/c1ccc2c(=O)n(CCc3ccccc3)c(C3CC3)nc2c1)NO`, the Activity result is on record as “Non-toxic”.

With `CC(C)c1nc2cc(/C=C/C(=O)NO)ccc2c(=O)n1CCc1ccccc1`, the Activity result is “Non-toxic”.

For the next series, the system named is SH-SY5Y. Briefly: Induction of neurite outgrowth in human SH-SY5Y cells at 10 uM after 5 days.
Conditions: not given
The class given is functional, cell-based.
With `CCc1nc2cc(/C=C/C(=O)NO)ccc2c(=O)n1CCCc1ccccc1`, the outcome was Active.

Regarding `CCc1nc2cc(/C=C/C(=O)NO)ccc2c(=O)n1CCc1ccc(F)cc1`, the outcome was Active.

As to `O=C(/C=C/c1ccc2c(=O)n(CCc3ccccc3)c(C3CC3)nc2c1)NO`, the result was Active.

Turning to `CC(C)c1nc2cc(/C=C/C(=O)NO)ccc2c(=O)n1CCc1ccccc1`, the result was Active.

Tested on in another series: not listed separately
Briefly: Cytotoxicity against human SH-SY5Y cells at 25 uM. In kind it is cell-based.
Conditions: not given
Take `CCc1nc2cc(/C=C/C(=O)NO)ccc2c(=O)n1CCCc1ccccc1`: the Activity result is “Non-toxic”.

Consider `CCc1nc2cc(/C=C/C(=O)NO)ccc2c(=O)n1CCc1ccc(F)cc1`, for which the Activity entry is reported as “Non-toxic”.

On to `O=C(/C=C/c1ccc2c(=O)n(CCc3ccccc3)c(C3CC3)nc2c1)NO`, for which the Activity entry is reported as “Non-toxic”.

With `CC(C)c1nc2cc(/C=C/C(=O)NO)ccc2c(=O)n1CCc1ccccc1`, the Activity entry is given as “Non-toxic”.

The test system of the next series is SH-SY5Y. Nature of the series: Induction of neurite outgrowth in human SH-SY5Y cells after 5 days. The note with it: 120 h. In kind it is functional, cell-based.
On to `CCc1nc2cc(/C=C/C(=O)NO)ccc2c(=O)n1CCCc1ccccc1`, for which the response was half-maximal at 11.7 µM (EC50).

Turning to `CCc1nc2cc(/C=C/C(=O)NO)ccc2c(=O)n1CCc1ccc(F)cc1`, the half-maximal effective concentration (EC50) was more than 25 µM.

In turn, `O=C(/C=C/c1ccc2c(=O)n(CCc3ccccc3)c(C3CC3)nc2c1)NO` yielded an EC50 of more than 25 µM.

As to `CC(C)c1nc2cc(/C=C/C(=O)NO)ccc2c(=O)n1CCc1ccccc1`, the half-maximal effective concentration (EC50) is 15 µM.

For another series, the target named is Histone deacetylase 2 (Homo sapiens, UniProt Q92769). Briefly: Inhibition of human recombinant HDAC2 expressed in baculovirus/sf9 cells using RHKKAc as substrate.
Chain of Histone deacetylase 2 (Q92769 whole entry): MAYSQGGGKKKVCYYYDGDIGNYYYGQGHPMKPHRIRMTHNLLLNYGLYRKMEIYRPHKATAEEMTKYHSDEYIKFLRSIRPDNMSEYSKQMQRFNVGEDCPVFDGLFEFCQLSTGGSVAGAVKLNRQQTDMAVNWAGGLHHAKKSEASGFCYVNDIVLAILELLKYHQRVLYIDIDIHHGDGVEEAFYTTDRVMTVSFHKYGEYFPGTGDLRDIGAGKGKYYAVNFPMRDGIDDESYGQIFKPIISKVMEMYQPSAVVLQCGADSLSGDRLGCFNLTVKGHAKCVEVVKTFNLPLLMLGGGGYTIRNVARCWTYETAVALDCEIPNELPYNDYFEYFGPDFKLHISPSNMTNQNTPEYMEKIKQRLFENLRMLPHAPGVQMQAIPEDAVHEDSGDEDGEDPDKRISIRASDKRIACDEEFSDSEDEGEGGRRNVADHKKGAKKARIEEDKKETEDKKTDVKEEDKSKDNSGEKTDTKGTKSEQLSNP
Conditions: not given
As to `CCc1nc2cc(/C=C/C(=O)NO)ccc2c(=O)n1CCCc1ccccc1`, the IC50 is more than 12 µM.

Take `CCc1nc2cc(/C=C/C(=O)NO)ccc2c(=O)n1CCc1ccc(F)cc1`: the IC50 was 6.88 µM.

Another series deals with PC-12. Briefly: Increase of synaptic activity in rat PC12 cells after 5 days by fluorescence assay. The class given is functional, cell-based. The note with it: PC-12, 120 h.
Regarding `CCc1nc2cc(/C=C/C(=O)NO)ccc2c(=O)n1CCCc1ccccc1`, the EC50 amounted to 7 µM.

Consider `CCc1nc2cc(/C=C/C(=O)NO)ccc2c(=O)n1CCc1ccc(F)cc1`, for which the 50% effective concentration (EC50) turned out to be 13.9 µM.

Take `CC(C)c1nc2cc(/C=C/C(=O)NO)ccc2c(=O)n1CCc1ccccc1`: a half-maximal effect (EC50) was put at 5.3 µM.
